The values below come from US5051417A, “Indolythiadiazines for treating heart failure” (Les Laboratoires Beecham S.A., priority 1988, dated 1991).

One assay has as its system canine cardiac PDE, CAM. As to the kind of experiment: Canine cardiac PDE inhibition, CAM. Type of assay: biochemical. Conditions: n in table.
The next assay addresses T1, canine cardiac PDE, CGI (Canis lupus familiaris, UniProt A0A8I3NYE0).
T1 construct: CANINE CARDIAC PDE; from tissue; host or cells: dog heart
T1 sequence (A0A8I3NYE0 1-1135): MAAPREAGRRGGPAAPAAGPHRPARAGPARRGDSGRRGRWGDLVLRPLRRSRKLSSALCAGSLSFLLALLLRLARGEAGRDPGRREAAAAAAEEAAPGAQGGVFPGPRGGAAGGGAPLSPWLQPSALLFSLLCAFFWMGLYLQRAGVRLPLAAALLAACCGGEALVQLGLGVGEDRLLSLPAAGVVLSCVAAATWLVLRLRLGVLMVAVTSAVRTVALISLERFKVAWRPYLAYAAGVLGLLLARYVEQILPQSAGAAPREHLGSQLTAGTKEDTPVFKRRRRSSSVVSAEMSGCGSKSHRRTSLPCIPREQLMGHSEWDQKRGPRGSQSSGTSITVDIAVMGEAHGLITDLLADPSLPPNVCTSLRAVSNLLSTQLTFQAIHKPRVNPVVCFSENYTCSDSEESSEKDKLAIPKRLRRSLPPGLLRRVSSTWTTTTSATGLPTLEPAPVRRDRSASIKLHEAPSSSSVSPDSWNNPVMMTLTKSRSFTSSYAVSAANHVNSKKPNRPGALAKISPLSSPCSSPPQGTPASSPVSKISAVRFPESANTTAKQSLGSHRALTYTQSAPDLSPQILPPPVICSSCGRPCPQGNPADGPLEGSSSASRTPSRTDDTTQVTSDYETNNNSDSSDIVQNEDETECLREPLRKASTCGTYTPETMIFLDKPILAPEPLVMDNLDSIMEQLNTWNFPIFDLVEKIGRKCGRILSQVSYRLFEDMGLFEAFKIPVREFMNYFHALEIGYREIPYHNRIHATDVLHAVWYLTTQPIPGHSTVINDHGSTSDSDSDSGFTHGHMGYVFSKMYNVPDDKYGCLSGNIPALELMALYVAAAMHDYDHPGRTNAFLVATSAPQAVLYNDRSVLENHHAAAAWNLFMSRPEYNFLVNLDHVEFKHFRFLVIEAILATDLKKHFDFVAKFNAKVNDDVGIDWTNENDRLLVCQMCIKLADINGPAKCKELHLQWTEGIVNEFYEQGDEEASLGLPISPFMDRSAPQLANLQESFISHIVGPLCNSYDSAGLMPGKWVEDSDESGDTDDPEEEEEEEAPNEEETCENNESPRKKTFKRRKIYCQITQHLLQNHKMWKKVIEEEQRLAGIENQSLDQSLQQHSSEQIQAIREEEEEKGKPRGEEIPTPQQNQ
As to the kind of experiment: Canine cardiac PDE inhibition, CGI. Type of assay: biochemical. Conditions: n in table.

Assay [1] deals with canine cardiac myofibrillar Ca++-dependent Mg++-ATPase. As to the kind of experiment: Measurement of myofibrillar Ca++-dependent Mg++-ATPase activity on canine cardiac myofibrils. Format: biochemical. Conditions: 30 μM, pH 7.0, 21° C.; for max (percent change of maximal ATPase activity): pCa=5.47. As for the experimental part: 1. Measurement of myofibrillar Ca++-dependent Mq++-ATPase activity The effect on myofibrillar Ca++sensitivity and on maximal activity of myofibrillar Ca++-dependent Mg++-ATPase was determined on canine cardiac myofibrils. (a) Contractile protein preparation Cardiac myofibrils free of membrane contaminants were prepared from left ventricular tissue of dog hearts using a modification of the method described by SOLARO et al, Biochem. Biophys. Acta, 245, 259-262, (1971). Before centrifugation, the heart homogenate was filtered through gauze. After Triton X-100 treatments, the myofibrillar fraction was washed once by resuspension and centrifugation in 10 volumes of 1 mM EGTA, […], 30 mM imidazole, 2 mM MgCl2, pH 7.0. The pellet was then washed three times in 10 volumes of the same buffer without EGTA. Before the last centrifugation, the suspension of myofibrils was filtered through a stainless steel sieve with 0.25 mm meshes. Myofibrils were kept in pellet overnight. Before use, the pellet was suspended in a small amount of buffer, the protein concentration was determined by the method of BRADFORD M., Anal. Biochem., 1976, 72, 248 and adjusted in order to have a concentration between 6 and 7 mg/ml. (b) Myofibrillar ATPase activity Ca++-dependent myfibrillar ATPase activity was determined at 21° C., pH 7.0, by measuring the rate of release of inorganic phosphate. All assays were performed within 24hrs. of final purification, using the method described by SOLARO and […]., 51. 290-4,(1982). Reaction mixtures (4 ml) containing 0.6-0.7 mg/ml myofibrillar protein, 80mM KCl, 20 mM imidazole, 3 mM MgCl2, 1 mM EGTA, the desired amount of CaCl2, and the indicated concentration of drug or appropriate vehicle were preincubated for 6 min. prior to assay. The amount of CaCl2 was varied between 0 and 0.9 mM and the pCa (-log free Ca++) computed using 2.514×10^6 M^-1 as the apparent affinity of Ca++for EGTA at pH 7.0. Reactions were initiated by the addition of Na2 ATP to final concentration of 2 mM. After an incubation period of 12 min., reactions were quenched by the addition of an equal volume of ice-cold 10% trichloroacetic acid. The protein was pelleted by centrifugation (2000 g, 15 min.) and Pi was assayed in the supernatant fraction using a modification of the method described by LANZETTA et al, Anal. Biochem., 100, 95-97, (1979). The following solutions were prepared: (1) 3.7% ammonium heptamolybdate in 0.12 N H2 SO4 (2) 0.074% malachite green oxalate in 1% polyvinylic alcohol. The colour reagent was prepared by mixing an equal volume of solution (1) and (2) 15 min. before the assay. For the assay, 1,700 μl of 1% H2 SO4 and 1 ml of colour reagent were added to 100 μl of sample. Colour development occurred at room temperature for 30 min. and was quenched by the addition of 200 μl of 1M tri-potassium citrate. The absorbance was measured at 620 millimicrons. The effect of each compound, tested at the indicated concentration, on the relation between pCa and percent activation was determined taking 100% for the maximum ATPase activity obrained with vehicle alone. The effect on Ca++sensitivity was quantified by measuring the shift of the pCa giving 50% of the maximal control ATPase activity. The effect on maximal ATPase activity was expressed as the percent change of ATPase activity for pCa=5.47. Mean effects on myofibrillar ATPase activity were obtained from 1 to 5 preparations, (compounds tested at 2×10^-4 M).

A further assay relates to anaesthetised dog. As to the kind of experiment: Cardiotonic activity in the dog (haemodynamics). Format: in vivo, dog (male Beagle). The settings on record: i.v.

By IC50 is commonly meant the concentration that inhibits the measured activity by half. Read a low IC50 as greater potency. With `CC1SC(=O)NN=C1c1ccc2c(c1)C(=Cc1ccccc1O)C(=O)N2` (stereo not shown) [Example 17, 1,3-Dihydro-5-(3,6-dihydro-6-methyl-2-oxo-2H-1,3,4-thiadiazin-5-yl)-3-[(2-hydroxyphenyl)methylene]-2H -indol-2-one], the IC50 in the assay on canine cardiac PDE, CAM was determined as 23000 nM. This compound also yielded an IC50 at canine cardiac PDE, CGI of 430 nM. In assay [1], the “max (percent change of maximal ATPase activity)” value was -16 ± 3% and the “pCa (shift of the pCa giving 50% of the maximal control ATPase activity; Ca++ sensitivity)” value was “+0.60 ± 0.07”. Further, in the assay on anaesthetised dog (0.3 mg/kg), the AoBF entry was “+14 ± 2%”, the AoBP was -8 ± 2%, the H.R. entry is “+9 ± 3%” and the “dP/dt Max” value is given as “+6 ± 2%”. In addition, in the assay with anaesthetised dog (1.0 mg/kg), the AoBF result was “+16 ± 1%”, the AoBP is reported as -7 ± 1%, the H.R. entry was “+22 ± 5%” and the “dP/dt Max” value is “+35 ± 8%”. Besides, in the assay with anaesthetised dog (3.0 mg/kg), the AoBF entry is on record as “+18 ± 4%”, the AoBP is listed as -20 ± 7%, the H.R. result was “+52 ± 13%” and the “dP/dt Max” value is “+81 ± 18%”.
Consider `CC1SC(=O)NN=C1c1ccc2c(c1)C(=NNc1ccccc1)C(=O)N2` (stereo not shown) [Example 5, 5-(3,6-Dihydro-6-methyl-2-oxo-2H-1,3,4-thiadiazin-5-yl)-1H -indole-2,3-dione 3-phenylhydrazone], for which the IC50 in the assay on canine cardiac PDE, CAM was more than 300000 nM; at canine cardiac PDE, CGI, 130 nM. Besides, the AoBF with anaesthetised dog (0.1 mg/kg) is -25 ± 1%; in the assay with anaesthetised dog (0.3 mg/kg), -34 ± 5%; with anaesthetised dog (1.0 mg/kg), -28 ± 4%; in the assay with anaesthetised dog (3.0 mg/kg), -37 ± 2%. The AoBP is -14 ± 6% with anaesthetised dog (0.1 mg/kg), -12 ± 3% with anaesthetised dog (0.3 mg/kg), -12 ± 1% with anaesthetised dog (1.0 mg/kg) and -19 ± 3% in the assay on anaesthetised dog (3.0 mg/kg). For the same compound, the H.R. result in the assay on anaesthetised dog (0.1 mg/kg) is given as “+8 ± 1%”; with anaesthetised dog (0.3 mg/kg), “+18 ± 7%”; with anaesthetised dog (1.0 mg/kg) it was “+19 ± 16%”; in the assay with anaesthetised dog (3.0 mg/kg) it was “+58 ± 0%”. Besides, the “dP/dt Max” value in the assay with anaesthetised dog (0.1 mg/kg) was “+7 ± 2%”; in the assay on anaesthetised dog (0.3 mg/kg), “+24 ± 6%”; with anaesthetised dog (1.0 mg/kg), “+42 ± 16%”; in the assay on anaesthetised dog (3.0 mg/kg) it was “+116 ± 31%”.
`CC1SC(=O)NN=C1c1ccc2c(c1)C(=Cc1ccncc1)C(=O)N2` (stereo not shown) [Example 18]: the IC50 came out at 4000 nM in the assay with canine cardiac PDE, CAM and 1900 nM against canine cardiac PDE, CGI. Also, in assay [1], the “max (percent change of maximal ATPase activity)” value is listed as -28 ± 4%. Moreover, the “pCa (shift of the pCa giving 50% of the maximal control ATPase activity; Ca++ sensitivity)” value in assay [1] is on record as “+0.04 ± 0.08”.
In the case of `CC1SC(=O)NN=C1c1ccc2c(c1)C(=NOc1ccccc1)C(=O)N2` (stereo not shown) [Example 11, 1,3,-Dihydro-5-(3,6-dihydro-6-methyl-2-oxo-2H-1,3,4-thiadiazin-5-yl)-3-phenoxyimino-2H-indol-2-one], in the assay on canine cardiac PDE, CAM, the IC50 was more than 300000 nM. The IC50 against canine cardiac PDE, CGI is 680 nM. In assay [1], the “max (percent change of maximal ATPase activity)” value was 8 ± 2% and the “pCa (shift of the pCa giving 50% of the maximal control ATPase activity; Ca++ sensitivity)” value is listed as “+0.36 ± 0.05”.
For `CC1SC(=O)NN=C1c1ccc2c(c1)C(=Nc1ccc(N(C)C)cc1)C(=O)N2` (stereo not shown) [Example 14, 1,3-Dihydro-5-(3,6-dihydro-6-methyl-2-oxo-2H-1,3,4-thiadiazin-5-yl)-3-(4-dimethylaminophenylimino)-2H -indol-2-one], in that order: 5600 nM, 620 nM, 0 ± 3% and “+0.12 ± 0.02”.
